In patent US20260232827A1, “ANTIBODY-DRUG CONJUGATES TARGETING NAPI2B AND METHODS OF USE” (Zymeworks BC Inc., priority 2023, published 2026):

Assays:
SKOV-3 (ovarian cancer) = test: In vitro cytotoxicity of camptothecin analogues (CellTiter-Glo); type: cell-based; settings: Homo sapiens, SK-OV-3, 96 h, read-out: pIC50 SKOV-3 (converted)
Procedure: (§1) Cytotoxicity of the camptothecin analogues was assessed in vitro as follows.
(§2) In vitro potency was assessed on multiple cancer cell lines: SK-BR-3 (breast cancer), SKOV-3 (ovarian cancer), Calu-3 (lung cancer), ZR-75-1 (breast cancer) and MDA-MB-468 (breast cancer). Serial dilutions of camptothecin analogues were prepared in RPMI 1640+10% FBS, and 20 μL of each dilution was added to 384-well plates. Cells cultured in log-phase growth were detached by brief incubation in 0.05% Trypsin and resuspended in respective culturing media at 20,000 cells/mL (with the exception of ZR-75 cells, which were resuspended at 10,000 cells/mL). 50 μL of cell suspension was then added to the plates containing test articles. Cells were incubated with test articles for 4 d at 37° C. (with the exception of ZR-75 cells, which were incubated for 5 d). Growth inhibition was assessed by CellTiter-Glo® (Promega Corporation, Madison, WI) and luminescence was measured on a plate reader. IC50 values were determined by GraphPad Prism (GraphPad Software, San Diego CA).

[1] = tested on: MDA-MB-468 (breast cancer); test: as above; type: cell-based; settings: Homo sapiens, MDA-MB-468, 96 h, read-out: pIC50 MDA-MB-468 (converted)
Procedure: as §1, §2

SK-BR-3 (breast cancer) = test: as above; type: cell-based; settings: Homo sapiens, SK-BR-3, 96 h, read-out: pIC50 SKBR-3 (converted)
Procedure: as §1, §2

ZR-75-1 (breast cancer) = test: as above; type: cell-based; settings: Homo sapiens, ZR-75-1, 120 h, read-out: pIC50 ZR-75 (converted)
Procedure: as §1, §2

Calu-3 (lung cancer) = test: as above; type: cell-based; settings: Homo sapiens, Calu-3, 96 h, read-out: pIC50 Calu-3 (converted)
Procedure: as §1, §2

[2] = tested on: Construct 2 (chimeric human NaPi2b, region 280-301); test: Binding region mapping, flow cytometry on transfected HEK293-6e cells; settings: 24 hours at 4° C.
Description: (§3) NaPi2b constructs containing deletions in the main extracellular loop of human NaPi2b, as well as chimeric NaPi2b/NaPi2c constructs concerning this main loop, were generated.
(§4) As a complementary strategy, two additional constructs were designed in which the relevant region of the main loop was deleted such as to mimic NaPi2c/NaPi2a main extracellular loop (Constructs 6-7 in Table 52.1). Clones were generated at GenScript Biotech (Piscataway, NJ).
(§5) Constructs were expressed in HEK293-6e cells as follows. Cells were maintained under standard culture conditions (37° C./5% CO2) with shaking at 110 rpm for suspension and cultured in FreeStyle™ 293 Expression Medium (Thermo Fisher Scientific, Waltham, MA) supplemented with 1% fetal bovine serum (Thermo Fisher Scientific, Waltham, MA) and 1× Penicillin-Streptomycin (Thermo Fisher Scientific, Waltham, MA). Cells were transfected with clones expressing the constructs listed in Table 52.1, at 1 μg of DNA per 1 million cells, using 293Fectin™ Transfection Reagent (Thermo Fisher Scientific, Waltham, MA) and Opti-MEM™ I Reduced Serum Medium (Thermo Fisher Scientific, Waltham, MA), and incubated for 24 hours under standard culture conditions (37° C./5% CO2/110 rpm). Following transfection, cells were seeded at 50,000 cells/well in conical-bottom 96-well plates and treated with a serial dilution of test antibody for 24 hours at 4° C. to prevent internalization. Cells were treated with final concentrations of all humanized antibodies of 200, 20, or 2 nM. Cells were treated with final concentrations of the reference anti-NaPi2a rabbit antibody of 50, 5, or 0.5 nM. […] Following incubation and washing, fluorescence was detected by flow cytometry on a BD LSRFortessa™ Cell Analyzer (BD Biosciences, Franklin Lake, NJ) with 1,000 minimum events collected per well. […] Background-subtracted AF647 Mean Fluorescence Intensity (MFI) values were calculated by subtracting the average MFI of three technical replicates of unstained (no primary antibody) cells.

[3] = tested on: Construct 1 (chimeric human NaPi2b, region 239-259); test: as above; settings: 24 hours at 4° C.
Description: as §3, §4, §5

Row | Compound | IC50 (SKOV-3 (ovarian cancer)) | IC50 [1] | IC50 (SK-BR-3 (breast cancer)) | IC50 (ZR-75-1 (breast cancer)) | IC50 (Calu-3 (lung cancer)) | Background-Subtracted AF647 Mean Fluorescence Intensity ([2]; antibody 20.0 nM) | Background-Subtracted AF647 Mean Fluorescence Intensity ([2]; antibody 200.0 nM) | Background-Subtracted AF647 Mean Fluorescence Intensity ([3]; antibody 2.0 nM) | Background-Subtracted AF647 Mean Fluorescence Intensity ([3]; antibody 20.0 nM) | Background-Subtracted AF647 Mean Fluorescence Intensity ([3]; antibody 200.0 nM)
1 | CC[C@@]1(O)C(=O)OCc2c1cc1n(c2=O)Cc2c-1nc1cc(F)c(C)cc1c2CN1CCN(c2ccc(N)cc2)CC1 [Compound 108, (S)-11-((4-(4-aminophenyl)piperazin-1-yl)methyl)-4-ethyl-8-fluoro-4-hydroxy-9-methyl-1,12-dihydro-14H-pyrano[3′,4′:6,7]indolizino[1,2-b]quinoline-3,14(4H)-dione] | 55 nM | 47.9 nM | 29.5 nM | 18.6 nM | 40.7 nM | – | – | – | – | –
2 | CC[C@@]1(O)C(=O)OCc2c1cc1n(c2=O)Cc2c-1nc1cc(F)c(C)cc1c2CN1CCO[C@@H](CO)C1 [Compound 113, (S)-4-ethyl-8-fluoro-4-hydroxy-11-(((R)-2-(hydroxymethyl)morpholino)methyl)-9-methyl-1,12-dihydro-14H-pyrano[3′,4′:6,7]indolizino[1,2-b]quinoline-3,14(4H)-dione] | 4.27 nM | 3.39 nM | 1.95 nM | 2.19 nM | 3.02 nM | – | – | – | – | –
3 | CC[C@@]1(O)C(=O)OCc2c1cc1n(c2=O)Cc2c-1nc1cc(F)c(C)cc1c2CN1CCSCC1CO (stereo partly drawn) [Compound 114, (4S)-4-ethyl-8-fluoro-4-hydroxy-11-((3-(hydroxymethyl)thiomorpholino)methyl)-9-methyl-1,12-dihydro-14H-pyrano[3′,4′:6,7]indolizino[1,2-b]quinoline-3,14(4H)-dione] | 0.178 nM | 0.417 nM | 0.107 nM | – | 0.0933 nM | – | – | – | – | –
4 | CC[C@@]1(O)C(=O)OCc2c1cc1n(c2=O)Cc2c-1nc1cc(F)c(C)cc1c2CN1C2CCC1(CO)CC2 [Compound 121] | 0.195 nM | 0.269 nM | 0.148 nM | – | 0.145 nM | – | – | – | – | –
5 | CC[C@@]1(O)C(=O)OCc2c1cc1n(c2=O)Cc2c-1nc1cc(F)c(C)cc1c2CNS(C)(=O)=O [Compound 122, (S)-N-((4-ethyl-8-fluoro-4-hydroxy-9-methyl-3,14-dioxo-3,4,12,14-tetrahydro-1H-pyrano[3′,4′:6,7]indolizino[1,2-b]quinolin-11-yl)methyl)methanesulfonamide] | 9.12 nM | 1.1 nM | 1.12 nM | 1.29 nM | 3.72 nM | – | – | – | – | –
6 | CC[C@@]1(O)C(=O)OCc2c1cc1n(c2=O)Cc2c-1nc1cc(F)c(C)cc1c2CNS(=O)(=O)c1ccccc1 [Compound 125, (S)-N-((4-ethyl-8-fluoro-4-hydroxy-9-methyl-3,14-dioxo-3,4,12,14-tetrahydro-1H-pyrano[3′,4′:6,7]indolizino[1,2-b]quinolin-11-yl)methyl)benzenesulfonamide] | 7.08 nM | 3.8 nM | 1.32 nM | 1.32 nM | 2.82 nM | – | – | – | – | –
7 | CC[C@@]1(O)C(=O)OCc2c1cc1n(c2=O)Cc2c-1nc1cc(F)c(C)cc1c2CNS(=O)(=O)c1ccc(N)cc1 [Compound 127, (S)-4-amino-N-((4-ethyl-8-fluoro-4-hydroxy-9-methyl-3,14-dioxo-3,4,12,14-tetrahydro-1H-pyrano[3′,4′:6,7]indolizino[1,2-b]quinolin-11-yl)methyl)benzenesulfonamide] | 14.5 nM | 3.8 nM | 3.31 nM | 5.25 nM | 9.33 nM | – | – | – | – | –
8 | CC[C@@]1(O)C(=O)OCc2c1cc1n(c2=O)Cc2c-1nc1cc(F)c(OC)cc1c2CNS(=O)(=O)c1ccc(N)cc1 [Compound 128, (S)-4-amino-N-((4-ethyl-8-fluoro-4-hydroxy-9-methoxy-3,14-dioxo-3,4,12,14-tetrahydro-1H-pyrano[3′,4′:6,7]indolizino[1,2-b]quinolin-11-yl)methyl)benzenesulfonamide] | 18.2 nM | 8.32 nM | 5.25 nM | 4.27 nM | – | – | – | – | – | –
9 | CC[C@@]1(O)C(=O)OCc2c1cc1n(c2=O)Cc2c-1nc1cc(F)c(C)cc1c2CNS(N)(=O)=O [Compound 131, (S)-((4-ethyl-8-fluoro-4-hydroxy-9-methyl-3,14-dioxo-3,4,12,14-tetrahydro-1H-pyrano[3′,4′:6,7]indolizino[1,2-b]quinolin-11-yl)methyl)sulfamide] | – | 9.12 nM | 1.05 nM | 0.955 nM | 9.12 nM | – | – | – | – | –
10 | CC[C@@]1(O)C(=O)OCc2c1cc1n(c2=O)Cc2c-1nc1cc(F)c(OC)cc1c2CNC(=O)NCc1ccc(N)cc1 [Compound 135, (S)-1-(4-aminobenzyl)-3-((4-ethyl-8-fluoro-4-hydroxy-9-methoxy-3,14-dioxo-3,4,12,14-tetrahydro-1/- pyrano[3′,4′:6,7]indolizino[1,2-b]quinolin-11-yl)methyl)urea] | – | 10.7 nM | 12.3 nM | 13.2 nM | – | – | – | – | – | –
11 | CC[C@@]1(O)C(=O)OCc2c1cc1n(c2=O)Cc2c-1nc1cc(F)c(N)cc1c2CN=[N+]=[N-] [Compound 152, (S)-9-amino-11-(azidomethyl)-4-ethyl-8-fluoro-4-hydroxy-1,12-dihydro-14H-pyrano[3′,4′:6,7]indolizino[1,2-b]quinoline-3,14(4H)-dione] | 2.88 nM | 5.01 nM | 3.24 nM | – | 1.48 nM | – | – | – | – | –
12 | MX35 [MX35 (v18992)] | – | – | – | – | – | 1,246 | 1,356 | 1,893 | 1,816 | 1,718
